Assay results reported in PMC8777785, “Antimicrobial Activity of Snake β-Defensins and Derived Peptides” (Toxins, 2021).
In brackets after ≈: the same amount, converted by molar mass. Residues, ends and D or L forms follow the SMILES beside them.

What was measured:
Klebsiella pneumonia = assay: Microbroth dilution assay, MIC; format: cell-based, Klebsiella pneumoniae; conditions: short derived peptides, 2.75 to 700 µg/mL, overnight 37 °C, read at 600 nm, three independent experiments
Experimental: (§1) The β-defensins were tested using a microbroth dilution assay. It consists of incubating the bacteria (4.105 colony-forming unit—CFU/mL) and the peptide (from 1 to 512 µg/mL) in liquid broth. After the incubation at 37 °C during the night, the bacterial growth was detected by spectrophotometry at 600 nm. If the measure is similar to the broth, it […]. […] The β-defensins were tested against B. jararaca oral flora because it would be of biological and medical interest. In addition, we tested on E. coli ATCC 25922 and M. luteus that are common Gram-negative and Gram-positive bacteria used in antibacterial tests.
(§2) The antibacterial activity of the alkylated peptides was tested against Gram-negative (G−) bacteria (Klebsiella pneumonia, Serratia marcescens, Morganella morganii, Providencia rettgeri, Citrobacter freundii, Escherichia coli ATCC 25922 and Gram-positive (G+) bacteria (Micrococcus luteus A270 and Staphylococcus aureus) using microbroth assay. In a 96-well plate, 90 µL of 10% tryptone soy broth (TSB) with 4 × 10^5 colony-forming unit (CFU/mL) were mixed with serial twofold dilutions of β-defensins duplicate in concentrations from 512 to 1 µg/mL. The derived peptides coded as PS1, PS2, PS3, PS5, and PS6 (Table 1) were tested against these bacteria in serial twofold dilutions with concentrations bellow 700 µg/mL. After overnight incubation at 37 °C, the turbidity of the bacterial culture was read at 600 nm (Epoch microplate reader, Biotek). The minimal inhibitory concentration (MIC) of each peptide was determined as the lowest concentration that results in no visible bacterial growth. The MIC resulted from three independent experiments. The bacteria K. pneumonia, S. marcescens, M. morganii, P. rettgeri, C. freundii, M. luteus A270 and S. aureus were isolated from Bothrops jararaca buccal flora and kindly provided by Dr. Márcia R. Franzolin (Laboratory of Bacteriology—Instituto Butantan). M. luteus was kindly provided by Dr. Pedro I. da Silva Jr. (Laboratory of Applied Toxinology—Instituto Butantan).

[1] = system: Trichophyton rubrum (IOC 4527); assay: Resazurin microtiter assay plate, antifungal MIC90; format: cell-based; conditions: resazurin colour change, RPMI 1640, 1 to 250 μM, 28 °C, 24–72 h; three independent experiments
Experimental: (§3) The derived peptides were also tested against fungi species using the classical resazurin microtiter assay plate method. It is based on the color change of the rezazurin dye that in blue indicates the absence of growth in at least 90%, and pink refers to microorganism growth. MIC is determined as the minimal concentration of the sample that can prevent the color change from blue to pink and refers to the inhibition of 90% of microorganisms.
(§4) The antifungal activity was evaluated by the microdilution assay as previously described on clinical strains of Candida albicans (IOC 4525), Cryptococcus neoformans (IOC 4528), Trichophyton rubrum (IOC 4527) and Aspergillus fumigatus (IOC 4526). The fungi were cultivated in potato dextrose agar at 28 °C according to the Clinical and Laboratory Standards Institute recommendations. Fungal suspensions were prepared in RPMI 1640 culture media; the CFU/mL was adjusted to 0.5–2.5 × 10^3 for yeasts (C. albicans and C. neoformans) and 0.4–5 × 10^4 CFU/mL for filamentous fungi (T. rubrum e A. fumigatus), by comparison with a standard curve previously stablished in our laboratory.
(§5) The peptides PS1, PS2, PS, PS3, PS4, PS5 and PS6 at 1 mM in acetic acid at 0.01% were diluted in RPMI 1640 culture media at concentrations ranging from 1 to 250 μM. Amphotericin B (AMB) at concentrations below 15 μg/mL (16 μM) and acetic acid from 0.0002 to 0.0025% was used as control.
(§6) The fungi suspensions were added to a 96 well plate (100 µL/well) and the samples (100 µL) in different concentrations were added to each well. The plate was incubated at 28 °C for 24–72 h, and 24 h before the end of the assay 25 µL of the rezazurin dye at 0.02% were added to each well. The minimal inhibitory concentration (MIC90) was defined as the lowest concentration that prevents the rezazurin’s change in color from blue to pink due to the inhibition of at least 90% of the microorganism’s growth. The assays were performed in three independent experiments.

[2] = system: Cryptococcus neoformans (IOC 4528); assay: Resazurin microtiter assay plate, antifungal MIC90; format: cell-based; conditions: resazurin colour change, RPMI 1640, 1 to 250 μM, 28 °C, 24–72 h; three independent experiments
Experimental: as §3, §4, §5, §6

[3] = system: Candida albicans (IOC 4525); assay: Resazurin microtiter assay plate, antifungal MIC90; format: cell-based; conditions: resazurin colour change, RPMI 1640, 1 to 250 μM, 28 °C, 24–72 h; three independent experiments
Experimental: as §3, §4, §5, §6

[4] = system: Aspergillus fumigatus (IOC 4526); assay: Resazurin microtiter assay plate, antifungal MIC90; format: cell-based; conditions: resazurin colour change, RPMI 1640, 1 to 250 μM, 28 °C, 24–72 h; three independent experiments
Experimental: as §3, §4, §5, §6

Citrobacter freundii = assay: Microbroth dilution assay, MIC; format: cell-based; conditions: overnight 37 °C, read at 600 nm, three independent experiments
Experimental: as §1, §2

Micrococcus luteus A270 = assay: Microbroth dilution assay, MIC; format: cell-based; conditions: overnight 37 °C, read at 600 nm, three independent experiments
Experimental: as §1, §2

Staphylococcus aureus = assay: Microbroth dilution assay, MIC; format: cell-based; conditions: overnight 37 °C, read at 600 nm, three independent experiments
Experimental: as §1, §2

[5] = system: Escherichia coli ATCC 25922; assay: Microbroth dilution assay, MIC; format: cell-based; conditions: overnight 37 °C, read at 600 nm, three independent experiments
Experimental: as §1, §2

[6] = short derived peptides, 2.75 to 700 µg/mL
[7] = snake β-defensins, linear (alkylated) except native crotamine, 10% TSB, 4 × 10^5 CFU/mL, 512 to 1 µg/mL

Row | Compound | MIC, K. pneumoniae (Klebsiella pneumonia) | MIC90, Trichophyton rubrum [1] | MIC90, Cryptococcus neoformans [2] | MIC90, Candida albicans [3] | MIC90, Aspergillus fumigatus [4] | MIC, C. freundii (Citrobacter freundii; [6]) | MIC, M. luteus (Micrococcus luteus A270; [6]) | MIC, S. aureus (Staphylococcus aureus; [6]) | MIC, E. coli [5, 6] | MIC, C. freundii (Citrobacter freundii; [7]) | MIC, M. luteus (Micrococcus luteus A270; [7]) | MIC, S. aureus (Staphylococcus aureus; [7]) | MIC, E. coli [5, 7]
1 | N=C(N)NCCC[C@H](NC(=O)[C@H](Cc1c[nH]c2ccccc12)NC(=O)[C@H](CCCNC(=N)N)NC(=O)[C@@H](N)CO)C(=O)N[C@@H](Cc1c[nH]c2ccccc12)C(=O)N[C@@H](CCCCN)C(=O)N[C@@H](CO)C(=O)N[C@@H](CO)C(=O)N[C@@H](CCCCN)C(=O)N[C@@H](CCCCN)C(=O)NCC(=O)N[C@@H](CO)C(=O)NCC(=O)O [PS1] (H-SRWRWKSSKKGSG-OH) | >452 µM | >250 µM | >250 µM | >250 µM | >250 µM | 113 µM (≈ 175 µg/mL) | 28.4 µM (≈ 44 µg/mL) | 56.5 µM (≈ 87.6 µg/mL) | 56.5 µM (≈ 87.6 µg/mL) | – | – | – | –
2 | CSCC[C@H](NC(=O)[C@H](CCC(N)=O)NC(=O)[C@@H](N)CO)C(=O)NCC(=O)N[C@@H](CCCNC(=N)N)C(=O)N[C@@H](CCSC)C(=O)N[C@@H](CO)C(=O)N[C@@H](CO)C(=O)N[C@@H](CCCNC(=N)N)C(=O)N[C@@H](CCCNC(=N)N)C(=O)N[C@@H](CCCNC(=N)N)C(=O)N[C@@H](Cc1ccccc1)C(=O)NCC(=O)N[C@@H](CCCCN)C(=O)O [PS2] (H-SQMGRMSSRRRFGK-OH) | >415 µM | >250 µM | >250 µM | >250 µM | >250 µM | >415 µM | 26.1 µM (≈ 44 µg/mL) | 415 µM (≈ 699 µg/mL) | 415 µM (≈ 699 µg/mL) | – | – | – | –
3 | N=C(N)NCCC[C@H](NC(=O)CNC(=O)[C@@H]1CCCN1C(=O)CNC(=O)[C@@H](N)CO)C(=O)N[C@@H](CCCNC(=N)N)C(=O)N[C@@H](CO)C(=O)N[C@@H](CO)C(=O)N[C@@H](CCCNC(=N)N)C(=O)N[C@@H](CCCNC(=N)N)C(=O)N[C@@H](CCCNC(=N)N)C(=O)N[C@@H](CCCCN)C(=O)O [PS3] (H-SGPGRRSSRRRK-OH) | >500 µM | >250 µM | >250 µM | >250 µM | >250 µM | >500 µM | 31.5 µM (≈ 44.1 µg/mL) | 125 µM (≈ 175 µg/mL) | >500 µM | – | – | – | –
4 | N=C(N)NCCC[C@H](NC(=O)[C@H](Cc1c[nH]c2ccccc12)NC(=O)[C@H](CCCNC(=N)N)NC(=O)[C@@H](N)CO)C(=O)N[C@@H](Cc1c[nH]c2ccccc12)C(=O)N[C@@H](CCCCN)C(=O)N[C@@H](CO)C(=O)O [PS6] (H-SRWRWKS-OH) | >697 µM | >250 µM | >250 µM | >250 µM | >250 µM | – | 43.8 µM (≈ 44 µg/mL) | 349 µM (≈ 351 µg/mL) | 697 µM (≈ 701 µg/mL) | – | – | – | –
5 | Crotamine | – | – | – | – | – | – | – | – | – | 6.7 µM | 1.7 µM | >105 µM | 13.3 µM
6 | DPVTCLKSGAICHPVFCPRRYKQIGTCGLPGTKCCKKP [hBd02, synthetic human β-defensin, GenBank AF071216, reference compound] | – | – | – | – | – | – | – | – | – | >124 µM | 2 µM | >124 µM | 15.6 µM
7 | QDLCHNLGGRCFRNRCSWSLRNHGGQDCPWGSVCCKP [DefbTs, synthetic β-defensin deduced from T. strigatus gene, GenBank KX664429] | – | – | – | – | – | – | – | – | – | >122 µM | 15.3 µM | >122 µM | >122 µM
8 | QEECLQQGGFCRLIRCPFGYDSLEQQDCRKGQRCCIRKPRK [DefbBj01, synthetic β-defensin deduced from B. jararaca gene, GenBank KC117163] | – | – | – | – | – | – | – | – | – | >105 µM | 3.2 µM | >105 µM | >105 µM
9 | QEWCRGLGGFCSFYQCRPGHDLGPQDCWPERRCCRWGK [DefbLm01, synthetic β-defensin deduced from L. muta gene, GenBank KC117171] | – | – | – | – | – | – | – | – | – | >113 µM | 28.4 µM | >113 µM | >113 µM
10 | QGQCHQQRGRCFLHQCPLSHYFLGRLDCGPGRRCCRRRK [DefbLm02, synthetic β-defensin deduced from L. muta gene, GenBank KC117172] | – | – | – | – | – | – | – | – | – | 3.4 µM | 0.9 µM | 6.8 µM | 3.4 µM
11 | QPECCQEGGICHSKQCPLGYSSLGRLDCQLGQRCCIRIFGK [DefbBn02, synthetic β-defensin deduced from B. neuwiedi gene, GenBank KC117169] | – | – | – | – | – | – | – | – | – | >113 µM | >113 µM | >113 µM | >113 µM
12 | QPECLRQGGMCRPRLCPYVSLGQLDCQNGHVCCRKKPRK [DefbBd03, synthetic β-defensin deduced from B. diporus gene, GenBank KC117160] | – | – | – | – | – | – | – | – | – | >115 µM | 0.9 µM | >115 µM | >115 µM
13 | QPQCRWLDGFCHSSPCPSGTTSIGQQDCLWYESCCIPRYEK [Crotasin, synthetic β-defensin deduced from C. durissus gene, GenBank AF250212] | – | – | – | – | – | – | – | – | – | >108 µM | >108 µM | >108 µM | >108 µM
14 | QRICLGGRGFCHSTPCPRSTIDYGKKDCWGSLRCCEPKRPGK [DefbPm, synthetic β-defensin deduced from P. mertensis gene, GenBank KX664436] | – | – | – | – | – | – | – | – | – | >109 µM | 6.8 µM | >109 µM | >109 µM
15 | QRRCHQKGGMCLPGPCPPGYDSLGQQDCRRGQKCCIKRFGK [DefbBju01, synthetic β-defensin deduced from B. jararacussu gene, GenBank KC117165] | – | – | – | – | – | – | – | – | – | >111 µM | >111 µM | >111 µM | >111 µM
16 | QRRCRQRRGICRPRPCPPENFSLGRLDCQMGQMCCRRRFGK [DefbBm03, synthetic β-defensin deduced from B. mattogrossensis gene, GenBank KC117168] | – | – | – | – | – | – | – | – | – | 3.2 µM | 1.6 µM | >103 µM | 1.6 µM
17 | QRRCRQRRGICRPRPCPPENFSLGRLDCQMGRMCCRRRFGK [DefbBm02, synthetic β-defensin deduced from B. mattogrossensis gene, GenBank KC117167] | – | – | – | – | – | – | – | – | – | 1.6 µM | 0.8 µM | 12.8 µM | 3.2 µM
